Experimental data: patent US8722052B2, “Vaccinia virus protein A46 peptide and use thereof” (priority 2008, dated 2014)

How the values were obtained:
[1] = system: TLR4; assay: LPS-induced NFκB reporter assay in HEK293_TLR4 cells; type: cell-based, human; settings: peptide 5 or 25 μM added 2 or 9 hours after 10 ng/ml LPS
Protocol: FIGS. 20A and B are bar charts showing the effect of shortened A464 peptides with deletions of N- and C-terminal amino acids on TLR4- and TLR3-induced NFκB activation in HEK293 cells. HEK293_TLR4 (A) and HEK293_TLR3 (B) cells were seeded in 96 well plates (1.5×10^5 cells/ml) 24 hours before transfection with the plasmid DNA. Cells were transfected with 60 ng NFκB-Luciferase and 20 ng of TK-Renilla reporter genes, as in FIG. 11. A464N-2 (SEQ ID NO. 41) and A464C-3 (SEQ ID NO. 42) peptides were added to the cells at a concentration of 1, 5 or 25 μM the next day and cells were stimulated with either 10 ng/ml LPS (A) or 25 μg/ml Poly(I:C) (B) 1 hour after treatment with peptides. Cells were harvested and assayed for NFκB activation by reporter gene assay 6 hours after stimulation with the agonists. No peptides were added to the control wells (black bars). Data is representative of three experiments each performed in triplicate and is expressed as mean fold induction±s.d. relative to control levels;
FIGS. 24A and B are bar charts showing the effect of A464 on ligand-independent TLR4 signalling in HEK293 cells. HEK293_TLR4 cells were seeded in 96 well plate (1.5×10^5 cells/ml) 24 hours before transfection with NFκB-luciferase and TK-Renilla reporter gene plasmids. NFκB activation was stimulated by transfecting either 50 or 100 ng of CD4/TLR4-encoding plasmid or by stimulating with 10 ng/ml LPS. The total amount of plasmid DNA transfected into the cells was made up to 230ng by adding pcDNA. A464 (SEQ ID NO. 20) was added to the cells at a concentration of 5 or 25 μM 2 hours (A) or 9 hours (B) after the transfection or LPS-stimulation. Cells were harvested and assayed for NFκB activation by reporter gene assay 24 hours post-transfection. No peptides were added to the control wells (black bars). Data is representative of two experiments, each performed in triplicate and is expressed as mean fold induction±s.d. relative to control levels;
HEK293 cells were transfected using GeneJuice® a proprietary non-toxic transfection reagent. […]

[2] = system: PBMCs; assay: MTT cell viability assay, PBMC; type: cell-based, human; settings: peptide 1, 5 and 25 μM
Protocol: FIGS. 13A and B are bar charts showing the effect of A467 and A464 on LPS-induced TNFα production and on cell viability in primary human cells. Peripheral blood mononuclear cells (PBMCs) were seeded in 96 well plates (1 ×10^6 cells/ml) 24 hours before treatment. A467 (SEQ ID NO. 23) and A464 (SEQ ID NO. 20) were added to the cells at 1, 5 and 25 μM 1 hour before stimulating with 10 ng/ml LPS. The peptides were added into the unstimulated control wells at 25 μM. Supernatants were collected 6 hours after stimulation and assayed for TNFα production by ELISA (A). The cells were assayed for viability by the MTT assay (B). No peptides were added to the control wells (black bars). Data is representative of at least three experiments each performed in triplicate and is expressed as mean±s.d;
Cell viability was measured by assessing mitochondrial function using an MTT (3-(4,5-Dimethylthiazol-2-yl)-2,5-diphenyltetrazolium bromide) assay. Cells were seeded into 96 well plates and treated with peptides and agonists as described above in relation to the Figs. Wells containing medium only served as a blank control. To terminate treatment of cells, medium was removed and the cells were washed once with PBS. […] MTT was then removed and 200 μl per well of dimethyl sulphoxide (DMSO) was added and cells incubated for 20 min at 37° C. in the dark, prior to absorbance being read at 595 nm on a spectrophotometer.

Chain of TLR4 (O00206 24-839): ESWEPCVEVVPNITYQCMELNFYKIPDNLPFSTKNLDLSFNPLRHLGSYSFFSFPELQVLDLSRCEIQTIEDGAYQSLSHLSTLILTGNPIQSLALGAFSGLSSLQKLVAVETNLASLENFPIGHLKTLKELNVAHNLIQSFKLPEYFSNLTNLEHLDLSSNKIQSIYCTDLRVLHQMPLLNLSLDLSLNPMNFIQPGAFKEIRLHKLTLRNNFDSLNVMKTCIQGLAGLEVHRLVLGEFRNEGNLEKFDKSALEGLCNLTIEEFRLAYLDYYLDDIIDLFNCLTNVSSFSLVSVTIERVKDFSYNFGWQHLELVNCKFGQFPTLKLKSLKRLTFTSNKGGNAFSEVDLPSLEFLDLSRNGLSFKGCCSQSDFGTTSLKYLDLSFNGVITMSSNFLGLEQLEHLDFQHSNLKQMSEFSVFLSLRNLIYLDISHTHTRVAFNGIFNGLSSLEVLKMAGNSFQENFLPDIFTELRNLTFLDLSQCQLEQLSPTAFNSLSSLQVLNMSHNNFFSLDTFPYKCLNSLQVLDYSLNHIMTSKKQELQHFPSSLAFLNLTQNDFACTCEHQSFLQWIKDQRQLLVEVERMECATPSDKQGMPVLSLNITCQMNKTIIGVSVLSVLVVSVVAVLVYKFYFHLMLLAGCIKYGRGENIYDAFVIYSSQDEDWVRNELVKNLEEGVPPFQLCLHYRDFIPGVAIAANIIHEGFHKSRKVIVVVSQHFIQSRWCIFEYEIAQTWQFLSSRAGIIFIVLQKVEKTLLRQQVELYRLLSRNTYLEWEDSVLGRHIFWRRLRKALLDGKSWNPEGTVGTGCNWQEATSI
Chain of TLR4 (Q9Y6Y9 17-160 partner limits assumed): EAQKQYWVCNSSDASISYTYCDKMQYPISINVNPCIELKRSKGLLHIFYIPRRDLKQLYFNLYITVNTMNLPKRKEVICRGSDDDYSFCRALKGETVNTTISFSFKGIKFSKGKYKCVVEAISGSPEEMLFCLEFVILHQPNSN

KYSFKLILAEYRRRRRRRRR [Peptide A464]
inhibition of LPS-induced NFκB activation [1]: capable of inhibiting LPS-induced NFκB activation
toxicity (MTT) [2]: not toxic
